Laboratory results from ChEMBL document CHEMBL1201862, “PubChem BioAssay data set” (2004).
Calls of active or inactive are those of the source.

Legend:
DLD-1 [1] = experiment: cytotoxicity in DLD-1 colorectal cells, late-stage follow-up, cytotoxicity control for KLF5 inhibitor project, cell-based, luminescence, round 1 (AID 485338); format: functional; conditions: Homo sapiens
[2] = Luminescence Cell-Based Dose Retest to Confirm Inhibitors of Cancer Stem Cells. [Related pubchem assays (depositor defined):AID2717, AID2721]; format: functional; conditions: Homo sapiens
[3] = Luminescence-based counterscreen assay for KLF5 inhibitors: dose response cell-based high throughput screening assay to identify cytotoxic compounds using the IEC-6 intestinal epithelial cell line. [Related pubchem assays: 1700 (Primary screen.), 1834 (Confirmation screen.), 1858 (Summary AID.), 1905 (Counterscreen.)]; format: functional
[4] = HEp-2 cell cytotoxicity, dose response, cytotoxicity control for RSV inhibitor project, HTS (AID 2410); format: functional; conditions: human respiratory syncytial virus
DLD-1 [5] = experiment: reduction of KLF5 protein levels, late-stage follow-up, orthogonal assay for KLF5 inhibitor project, western blot, chemiluminescence, DLD-1 cells, titration (AID 485336); format: functional, cell-based; conditions: Homo sapiens
Streptococcus = experiment: Group A Streptococcus viability loss, dose response, counter-screen for streptokinase expression inhibitor project, luminescence, BacTiterGlo (AID 1915); format: functional, organism-based;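 also: potency for reduction of bacterial viability or growth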
Streptokinase A = target: T1, Streptokinase A (Streptococcus pyogenes serotype M1, UniProt P10520); experiment: S. pyogenes streptokinase expression inhibitors, potency, dose response, plasminogen activation absorbance, OD405 (AID 1914); format: functional, Streptococcus pyogenes M1 GAS;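 also: secreted streptokinase activity via plasminogen activation per viability signal from cell pellet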
T1 sequence (P10520 whole entry): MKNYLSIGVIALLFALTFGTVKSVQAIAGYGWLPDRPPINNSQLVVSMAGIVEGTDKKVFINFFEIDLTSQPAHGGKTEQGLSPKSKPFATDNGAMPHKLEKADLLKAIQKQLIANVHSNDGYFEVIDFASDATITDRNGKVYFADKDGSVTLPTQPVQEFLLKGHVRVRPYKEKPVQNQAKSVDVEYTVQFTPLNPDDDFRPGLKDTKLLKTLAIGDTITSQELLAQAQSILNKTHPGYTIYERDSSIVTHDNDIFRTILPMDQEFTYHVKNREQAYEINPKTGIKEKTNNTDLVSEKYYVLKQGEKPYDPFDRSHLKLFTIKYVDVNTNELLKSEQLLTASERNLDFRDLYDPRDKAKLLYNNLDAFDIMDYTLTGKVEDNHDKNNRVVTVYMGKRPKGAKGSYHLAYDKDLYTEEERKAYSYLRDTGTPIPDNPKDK

[6] = test system: Streptococcus sp. 'group A'; experiment: growth inhibition of control SK(-) GAS strain, dose response, counter-screen for streptokinase expression inhibitor project, luminescence, kanamycin, BacTiterGlo, confirmation (AID 1900); format: functional, organism-based
SUMO-activating enzyme [7] = target: T2, SUMO-activating enzyme (Homo sapiens, UniProt Q9UBT2); experiment: SUMOylation inhibitor hit validation, confirmation, SUMOylation inhibitor project, biochemical, AlphaScreen (AID 2018); format: functional
[8] = growth suppression of beta-catenin-knockout colon cells, dose response, cell-based, HCT116, human colon tumor (AID 1045); format: functional;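 also: HCT116 colon tumor cells with beta catenin knocked out; cells exposed to compound for 60 hours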
[9] = target: T3, Carboxy-terminal domain RNA polymerase II polypeptide A small phosphatase 1 (Homo sapiens, UniProt Q9GZU7); experiment: inhibitors of CTDSP1, concentration-response testing, biochemical assay, absorbance-based, actives from ultra-high-throughput screening (AID 540297); format: functional
T3 sequence (Q9GZU7 whole entry): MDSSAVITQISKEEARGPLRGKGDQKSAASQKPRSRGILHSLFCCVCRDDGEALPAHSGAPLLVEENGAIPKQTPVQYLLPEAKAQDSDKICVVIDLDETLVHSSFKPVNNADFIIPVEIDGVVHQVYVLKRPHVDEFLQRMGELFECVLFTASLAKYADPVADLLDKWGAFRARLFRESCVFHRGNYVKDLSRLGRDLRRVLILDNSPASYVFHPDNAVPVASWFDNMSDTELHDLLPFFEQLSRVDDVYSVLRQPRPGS

SUMO-activating enzyme [10] = target: T2, SUMO-activating enzyme; experiment: inhibitors of in vitro SUMOylation cascade, primary screen, biochemical, HTRF, uHTS (AID 2006); format: protein-complex assay
[11] = growth suppression of PTEN-null colon cells, dose response, cell-based, HCT116 PTEN knockout (AID 1047); format: functional;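 also: HCT116 colon tumor cells with PTEN knocked out; cells exposed to compound for 60 hours before readout; potency for loss of cell viability measured by luminescence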
[12] = target: T4, G-protein coupled receptor 35 (Homo sapiens, UniProt Q9HC97); experiment: SAR analysis of Agonists of the GPR35 Receptor using an Image-Based Assay - Set 2. [Related pubchem assays (depositor defined):AID2013, AID2026]; format: functional
Cannabinoid receptor 1 [13] = target: T5, Cannabinoid receptor 1 (Homo sapiens, UniProt P21554); experiment: SAR analysis of agonists of the Cannabinoid Receptor 1 using an Image-Based Assay - Set 2. [Related pubchem assays (depositor defined):AID2013, AID2026]; format: functional
[14] = target: T4, G-protein coupled receptor 35; experiment: SAR analysis of Antagonists of the GPR35 Receptor using an Image-Based Assay - Set 3. [Related pubchem assays (depositor defined):AID2013, AID2026]; format: functional
[15] = target: T6, G-protein coupled receptor 55 (Homo sapiens, UniProt Q9Y2T6); experiment: GPR55 antagonists blocking LPI-driven arrestin recruitment, primary screen, imaging, U2OS, beta-arrestin-GFP, LPI agonist (AID 2013); format: functional;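 also: antagonist potency measured as reduced agonist-driven arrestin aggregation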
Cannabinoid receptor 2 [16] = target: T7, Cannabinoid receptor 2 (Homo sapiens, UniProt P34972); experiment: SAR analysis of agonists of the Cannabinoid Receptor 2 using an Image-Based Assay. [Related pubchem assays (depositor defined):AID2013, AID2026]; format: functional
Cannabinoid receptor 2 [17] = target: T7, Cannabinoid receptor 2; experiment: SAR analysis of antagonists of the Cannabinoid Receptor 2 using an Image-Based Assay. [Related pubchem assays (depositor defined):AID2013, AID2026]; format: functional
Cannabinoid receptor 1 [18] = target: T5, Cannabinoid receptor 1; experiment: SAR analysis of antagonists of the Cannabinoid Receptor 1 using an Image-Based Assay - Set 2. [Related pubchem assays (depositor defined):AID2013, AID2026]; format: functional
[19] = target: T6, G-protein coupled receptor 55; experiment: GPR55 antagonist potency of analogs, SAR follow-up, imaging, U2OS, beta-arrestin-GFP, LPI agonist, set 2 (AID 2820); format: functional
Coagulation factor XII = target: T8, Coagulation factor XII (Homo sapiens, UniProt P00748); experiment: Factor XIIa Dose Response Confirmation from Single Well HTS. [Related pubchem assays (depositor defined):AID701]; format: functional
T8 sequence (P00748 whole entry): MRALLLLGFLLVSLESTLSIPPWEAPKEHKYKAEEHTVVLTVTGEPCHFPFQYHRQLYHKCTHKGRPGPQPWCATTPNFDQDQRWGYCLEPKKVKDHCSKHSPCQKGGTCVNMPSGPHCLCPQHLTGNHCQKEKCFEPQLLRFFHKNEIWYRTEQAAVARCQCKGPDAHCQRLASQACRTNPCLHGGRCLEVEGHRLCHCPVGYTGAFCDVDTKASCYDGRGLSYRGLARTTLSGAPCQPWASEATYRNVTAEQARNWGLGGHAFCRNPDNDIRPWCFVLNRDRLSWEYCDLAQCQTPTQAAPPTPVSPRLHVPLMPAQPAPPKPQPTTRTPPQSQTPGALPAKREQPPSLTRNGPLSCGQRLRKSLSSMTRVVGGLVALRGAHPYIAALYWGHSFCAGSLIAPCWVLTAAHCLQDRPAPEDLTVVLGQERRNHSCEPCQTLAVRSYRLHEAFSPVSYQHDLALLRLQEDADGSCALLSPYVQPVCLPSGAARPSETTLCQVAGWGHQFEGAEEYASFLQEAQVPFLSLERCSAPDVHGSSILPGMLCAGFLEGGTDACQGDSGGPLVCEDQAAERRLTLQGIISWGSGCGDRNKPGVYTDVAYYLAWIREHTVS

[20] = target: T9, Intestinal-type alkaline phosphatase (Homo sapiens, UniProt P09923); experiment: Dose Response confirmation of uHTS hits from a small molecule inhibitors of human intestinal alkaline phosphatase via a luminescent assay. [Related pubchem assays (depositor defined):AID2544, AID2574]; format: functional
[21] = target: T9, Intestinal-type alkaline phosphatase; experiment: human intestinal alkaline phosphatase activators, dose response, biochemical, luminescence, uHTS hits (AID 463120); format: functional
Hexokinase HKDC1 = target: T10, Hexokinase HKDC1 (Homo sapiens, UniProt Q2TB90); experiment: HKDC1 hexokinase activators, dose response, biochemical, W721R variant (AID 504730); format: functional
T10 sequence (Q2TB90 whole entry): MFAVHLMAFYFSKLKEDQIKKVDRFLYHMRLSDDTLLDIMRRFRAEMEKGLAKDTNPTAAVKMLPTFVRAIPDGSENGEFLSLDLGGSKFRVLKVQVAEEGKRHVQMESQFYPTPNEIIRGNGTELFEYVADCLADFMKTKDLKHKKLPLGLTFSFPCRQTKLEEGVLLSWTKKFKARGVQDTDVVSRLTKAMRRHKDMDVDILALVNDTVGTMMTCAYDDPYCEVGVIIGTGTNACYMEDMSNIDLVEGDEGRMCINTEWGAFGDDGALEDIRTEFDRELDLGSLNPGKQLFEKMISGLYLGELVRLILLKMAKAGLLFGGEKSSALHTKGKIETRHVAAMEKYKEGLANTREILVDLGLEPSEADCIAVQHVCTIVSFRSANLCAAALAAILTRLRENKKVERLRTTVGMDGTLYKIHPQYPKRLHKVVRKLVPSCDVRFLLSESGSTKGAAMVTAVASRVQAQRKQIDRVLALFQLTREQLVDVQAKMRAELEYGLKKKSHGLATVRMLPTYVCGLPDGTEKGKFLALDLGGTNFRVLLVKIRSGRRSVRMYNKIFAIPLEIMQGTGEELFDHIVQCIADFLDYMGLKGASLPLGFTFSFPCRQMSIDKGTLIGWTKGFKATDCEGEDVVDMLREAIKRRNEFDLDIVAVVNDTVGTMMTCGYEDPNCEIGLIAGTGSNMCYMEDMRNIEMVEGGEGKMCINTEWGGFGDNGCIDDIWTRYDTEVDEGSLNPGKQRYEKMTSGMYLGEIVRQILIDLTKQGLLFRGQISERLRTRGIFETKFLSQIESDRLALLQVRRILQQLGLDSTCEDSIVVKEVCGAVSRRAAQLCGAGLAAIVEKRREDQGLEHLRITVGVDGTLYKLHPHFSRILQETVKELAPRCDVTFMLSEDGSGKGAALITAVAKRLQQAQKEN

Hexokinase-1 = Hexokinase-1 (Homo sapiens, UniProt P19367); experiment: hexokinase 1 activators, dose response, selectivity assay for HKDC1 activator project, biochemical (AID 504762); format: functional
[22] = target: T11, Type-1 angiotensin II receptor (Homo sapiens, UniProt P30556); experiment: AT1 receptor agonists, dose response, selectivity assay for APJ receptor agonist project, cell-based, uHTS hits (AID 488865); format: functional;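 also: beta-arrestin recruitment to AT1 measured by enzyme fragment complementation luminescence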
T11 sequence (P30556 whole entry): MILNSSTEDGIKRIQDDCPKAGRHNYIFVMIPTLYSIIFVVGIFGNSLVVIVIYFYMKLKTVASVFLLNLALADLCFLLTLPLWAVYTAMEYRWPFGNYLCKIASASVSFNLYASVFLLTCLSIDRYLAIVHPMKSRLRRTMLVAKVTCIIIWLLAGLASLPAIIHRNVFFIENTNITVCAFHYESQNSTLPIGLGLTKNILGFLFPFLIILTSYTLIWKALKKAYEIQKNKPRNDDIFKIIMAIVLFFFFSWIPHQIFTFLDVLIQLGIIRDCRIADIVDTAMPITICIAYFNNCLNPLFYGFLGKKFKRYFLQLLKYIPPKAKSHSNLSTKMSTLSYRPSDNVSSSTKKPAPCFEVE

Protein Tat = target: T12, Protein Tat (Human immunodeficiency virus type 1 group M subtype B (isolate HXB2)(HIV-1), UniProt P04608); format: functional;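 also: tat binding to TAR RNA read out by fluorescence polarization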
T12 sequence (P04608 whole entry): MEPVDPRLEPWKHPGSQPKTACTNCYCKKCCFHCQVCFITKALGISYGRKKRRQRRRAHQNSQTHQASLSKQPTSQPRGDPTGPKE

[23] = target: DNA dC->dU-editing enzyme APOBEC-3A (Homo sapiens, UniProt P31941); experiment: Dose Response confirmation of small molecule APOBEC3A DNA Deaminase Inhibitors via a fluorescence-based single-stranded DNA deaminase assay. [Related pubchem assays (depositor defined):AID493011, AID493024]; format: functional
[24] = target: DNA dC->dU-editing enzyme APOBEC-3G (Homo sapiens, UniProt Q9HC16); format: functional;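 also: Dose-response counterscreen measuring inhibition of APOBEC3G DNA deaminase activity, run while confirming APOBEC3A inhibitors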
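For AC50 in this document: cells exposed to compound for roughly 70 hours or longer before luminescence read.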

T5 sequence (P21554 whole entry): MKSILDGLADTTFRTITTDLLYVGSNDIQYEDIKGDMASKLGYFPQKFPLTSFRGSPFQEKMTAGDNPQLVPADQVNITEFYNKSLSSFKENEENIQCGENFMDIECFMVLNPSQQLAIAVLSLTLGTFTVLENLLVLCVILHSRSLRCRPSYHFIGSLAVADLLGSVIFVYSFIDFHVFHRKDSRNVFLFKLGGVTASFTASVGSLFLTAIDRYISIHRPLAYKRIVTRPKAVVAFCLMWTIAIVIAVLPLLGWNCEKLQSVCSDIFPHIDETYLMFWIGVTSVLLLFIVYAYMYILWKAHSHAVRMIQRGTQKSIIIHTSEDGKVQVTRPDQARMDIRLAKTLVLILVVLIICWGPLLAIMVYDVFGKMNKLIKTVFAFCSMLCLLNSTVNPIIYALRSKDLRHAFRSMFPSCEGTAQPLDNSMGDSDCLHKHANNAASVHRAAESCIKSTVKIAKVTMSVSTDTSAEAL
T6 sequence (Q9Y2T6 whole entry): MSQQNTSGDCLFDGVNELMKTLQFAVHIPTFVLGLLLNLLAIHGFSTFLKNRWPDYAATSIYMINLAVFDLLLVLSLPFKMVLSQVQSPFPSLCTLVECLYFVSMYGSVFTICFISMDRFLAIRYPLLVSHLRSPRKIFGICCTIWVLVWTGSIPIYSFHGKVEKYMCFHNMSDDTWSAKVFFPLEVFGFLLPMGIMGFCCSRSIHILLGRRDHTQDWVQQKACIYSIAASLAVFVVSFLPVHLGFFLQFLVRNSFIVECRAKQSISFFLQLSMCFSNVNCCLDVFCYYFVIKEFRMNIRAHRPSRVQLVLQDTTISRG
T2 sequence (Q9UBE0 whole entry): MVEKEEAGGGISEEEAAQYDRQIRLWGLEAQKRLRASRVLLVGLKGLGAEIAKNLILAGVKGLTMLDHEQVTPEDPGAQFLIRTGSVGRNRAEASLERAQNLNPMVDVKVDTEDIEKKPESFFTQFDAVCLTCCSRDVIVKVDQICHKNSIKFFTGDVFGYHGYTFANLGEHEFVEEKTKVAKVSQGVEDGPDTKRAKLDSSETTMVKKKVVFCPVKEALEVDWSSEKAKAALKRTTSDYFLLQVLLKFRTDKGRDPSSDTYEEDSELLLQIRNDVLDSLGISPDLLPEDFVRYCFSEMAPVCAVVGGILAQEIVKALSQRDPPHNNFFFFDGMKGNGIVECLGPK
T2 sequence (Q9UBT2 whole entry): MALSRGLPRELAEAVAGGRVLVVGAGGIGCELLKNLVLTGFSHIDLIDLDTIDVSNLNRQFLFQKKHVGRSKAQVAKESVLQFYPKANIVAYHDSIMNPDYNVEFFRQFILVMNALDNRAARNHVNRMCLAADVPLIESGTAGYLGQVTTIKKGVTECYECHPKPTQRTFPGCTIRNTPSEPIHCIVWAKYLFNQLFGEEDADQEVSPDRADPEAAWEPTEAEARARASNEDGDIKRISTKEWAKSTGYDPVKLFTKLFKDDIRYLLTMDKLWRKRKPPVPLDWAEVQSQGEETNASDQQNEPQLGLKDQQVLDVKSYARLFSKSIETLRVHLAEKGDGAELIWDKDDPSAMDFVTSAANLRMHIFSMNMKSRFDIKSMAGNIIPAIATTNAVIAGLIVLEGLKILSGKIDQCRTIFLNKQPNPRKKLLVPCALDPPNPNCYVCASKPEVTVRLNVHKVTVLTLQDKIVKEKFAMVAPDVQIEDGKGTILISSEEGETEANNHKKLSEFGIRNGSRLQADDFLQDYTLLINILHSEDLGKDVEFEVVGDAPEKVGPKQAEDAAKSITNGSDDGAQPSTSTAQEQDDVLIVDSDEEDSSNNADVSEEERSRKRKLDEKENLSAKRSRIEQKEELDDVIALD
T4 sequence (Q9HC97 whole entry): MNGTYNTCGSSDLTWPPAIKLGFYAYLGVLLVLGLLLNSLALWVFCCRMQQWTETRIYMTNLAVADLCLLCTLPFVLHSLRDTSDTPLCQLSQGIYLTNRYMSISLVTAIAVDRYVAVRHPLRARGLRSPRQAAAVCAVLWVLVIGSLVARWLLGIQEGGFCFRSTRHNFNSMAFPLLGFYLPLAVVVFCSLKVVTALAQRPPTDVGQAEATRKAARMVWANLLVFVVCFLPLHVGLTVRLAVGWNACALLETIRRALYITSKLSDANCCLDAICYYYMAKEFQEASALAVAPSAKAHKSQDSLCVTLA
T9 sequence (P09923 whole entry): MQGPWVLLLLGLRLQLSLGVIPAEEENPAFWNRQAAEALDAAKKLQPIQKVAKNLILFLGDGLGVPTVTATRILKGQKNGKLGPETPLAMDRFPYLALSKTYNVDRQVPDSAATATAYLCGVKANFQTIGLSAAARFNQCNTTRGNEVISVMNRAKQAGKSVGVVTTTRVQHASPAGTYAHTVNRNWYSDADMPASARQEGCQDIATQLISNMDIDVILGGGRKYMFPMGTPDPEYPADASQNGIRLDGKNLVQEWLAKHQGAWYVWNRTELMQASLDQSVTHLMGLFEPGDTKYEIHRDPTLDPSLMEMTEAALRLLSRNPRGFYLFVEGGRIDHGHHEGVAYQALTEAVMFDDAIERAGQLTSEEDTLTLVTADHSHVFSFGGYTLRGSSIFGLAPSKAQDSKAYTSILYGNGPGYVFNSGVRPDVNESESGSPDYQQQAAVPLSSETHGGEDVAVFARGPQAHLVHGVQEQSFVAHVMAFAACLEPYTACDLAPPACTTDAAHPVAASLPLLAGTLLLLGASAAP
T7 sequence (P34972 whole entry): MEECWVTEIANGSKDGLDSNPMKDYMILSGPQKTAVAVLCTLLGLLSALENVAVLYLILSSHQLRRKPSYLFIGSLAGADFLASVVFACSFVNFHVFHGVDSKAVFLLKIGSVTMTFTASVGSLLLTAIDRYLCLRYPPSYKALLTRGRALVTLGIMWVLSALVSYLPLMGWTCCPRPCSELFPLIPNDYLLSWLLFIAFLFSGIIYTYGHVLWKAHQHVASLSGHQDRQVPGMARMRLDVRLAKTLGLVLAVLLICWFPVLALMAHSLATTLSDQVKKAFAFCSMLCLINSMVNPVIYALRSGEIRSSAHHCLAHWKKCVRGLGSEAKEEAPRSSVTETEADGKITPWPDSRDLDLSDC
DNA dC->dU-editing enzyme APOBEC-3A, sequence (P31941 whole entry): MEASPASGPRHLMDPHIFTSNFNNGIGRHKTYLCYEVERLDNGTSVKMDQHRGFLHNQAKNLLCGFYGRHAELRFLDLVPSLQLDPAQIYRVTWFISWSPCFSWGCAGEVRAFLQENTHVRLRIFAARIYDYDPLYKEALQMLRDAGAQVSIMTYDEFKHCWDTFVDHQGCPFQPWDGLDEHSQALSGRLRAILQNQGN
DNA dC->dU-editing enzyme APOBEC-3G, sequence (Q9HC16 whole entry): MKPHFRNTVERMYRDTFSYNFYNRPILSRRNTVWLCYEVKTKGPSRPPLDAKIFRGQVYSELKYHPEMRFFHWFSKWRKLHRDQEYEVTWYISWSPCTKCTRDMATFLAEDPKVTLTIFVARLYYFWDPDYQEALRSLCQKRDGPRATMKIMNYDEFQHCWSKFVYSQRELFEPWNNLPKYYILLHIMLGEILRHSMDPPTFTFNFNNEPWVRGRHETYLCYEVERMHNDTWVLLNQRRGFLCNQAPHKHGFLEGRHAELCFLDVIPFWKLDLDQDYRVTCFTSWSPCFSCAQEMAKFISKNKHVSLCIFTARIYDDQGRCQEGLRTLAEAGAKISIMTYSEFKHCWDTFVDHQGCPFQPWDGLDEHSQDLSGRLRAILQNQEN
Hexokinase-1, sequence (P19367 whole entry, the tested form may be a part): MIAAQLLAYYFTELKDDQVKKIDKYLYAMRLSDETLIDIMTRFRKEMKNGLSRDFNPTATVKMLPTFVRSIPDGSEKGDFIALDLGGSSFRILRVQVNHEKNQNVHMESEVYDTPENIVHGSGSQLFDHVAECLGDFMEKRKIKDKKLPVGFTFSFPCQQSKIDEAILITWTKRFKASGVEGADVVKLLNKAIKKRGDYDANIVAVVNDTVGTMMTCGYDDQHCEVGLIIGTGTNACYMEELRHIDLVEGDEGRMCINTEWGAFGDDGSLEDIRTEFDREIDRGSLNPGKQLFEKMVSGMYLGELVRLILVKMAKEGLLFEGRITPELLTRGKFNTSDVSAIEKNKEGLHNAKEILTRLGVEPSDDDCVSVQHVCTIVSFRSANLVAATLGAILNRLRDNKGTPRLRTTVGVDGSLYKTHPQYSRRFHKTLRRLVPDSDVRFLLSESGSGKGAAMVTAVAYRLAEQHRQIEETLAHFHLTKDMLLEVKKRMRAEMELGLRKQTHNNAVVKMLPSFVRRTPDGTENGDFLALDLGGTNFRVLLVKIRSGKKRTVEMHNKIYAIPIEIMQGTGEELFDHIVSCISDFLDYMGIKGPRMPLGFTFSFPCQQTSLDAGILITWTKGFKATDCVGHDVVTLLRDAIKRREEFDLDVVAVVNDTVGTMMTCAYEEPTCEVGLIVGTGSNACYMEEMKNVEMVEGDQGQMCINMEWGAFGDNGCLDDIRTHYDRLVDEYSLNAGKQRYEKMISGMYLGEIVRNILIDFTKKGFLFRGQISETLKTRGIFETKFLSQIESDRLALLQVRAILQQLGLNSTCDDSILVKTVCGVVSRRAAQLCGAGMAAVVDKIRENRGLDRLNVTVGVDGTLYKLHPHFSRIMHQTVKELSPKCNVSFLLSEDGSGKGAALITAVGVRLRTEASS

Compound: CN(C(=O)COC(=O)/C=C/c1cccc([N+](=O)[O-])c1)C1CCS(=O)(=O)C1 (configuration not stated)
- IC50 (DLD-1 [1]): 3.57 µM (active)
- AC50 [2]: 1.43 µM (active)
- IC50 [3]: 32.3 µM (not active)
- CC50 [4]: 11.4 µM (active)
- IC50 (DLD-1 [5]): 2.25 µM (active)

Compound: COc1ccccc1-n1cnc2c(c1=O)c1nc3ccccc3nc1n2-c1ccc(C)c(C)c1
- EC50 (Streptococcus): 59 µM (active)
- EC50 (Streptokinase A): > 150 µM (not active)
- EC50 [6]: 11.2 µM (active)
- IC50 (SUMO-activating enzyme [7]): 5.24 µM (active)
- EC50 [8]: 20.2 µM (active)
- IC50 [9]: 7.53 µM (active)
- IC50 (SUMO-activating enzyme [10]): 15.4 µM (active)
- EC50 [11]: 19.2 µM (active)

Compound: Cc1cccn2c(=O)c3cc(C(=O)NC4CCCC4)c(=N)n(C4CCCC4)c3nc12
- EC50 [12]: > 32 µM (inactive)
- EC50 (Cannabinoid receptor 1 [13]): > 32 µM (inactive)
- IC50 [14]: > 32 µM (inactive)
- IC50 [15]: 1.24 µM (active)
- EC50 (Cannabinoid receptor 2 [16]): > 32 µM (inactive)
- IC50 (Cannabinoid receptor 2 [17]): > 32 µM (inactive)
- IC50 (Cannabinoid receptor 1 [18]): > 32 µM (inactive)
- IC50 [19]: 0.965 µM (active)

Compound: O=C(Oc1ccc(Cl)c2cccnc12)c1ccco1
- EC50 (Streptococcus): 11.6 µM (active)
- EC50 [6]: 3.93 µM (active)
- IC50 (Coagulation factor XII): 21.6 µM (active)

Compound: COc1cccc(-c2nc(CS(=O)(=O)CC(=O)Nc3cc(OC)ccc3OC)c(C)o2)c1
- IC50 [20]: > 100 µM (inactive)
- EC50 [21]: > 100 µM (inactive)

Compound: Cn1c(-c2ccccc2)c(C(=O)CC#N)c2ccccc21
- EC50 (Hexokinase HKDC1): 39.2 µM (inactive)
- EC50 (Hexokinase-1): 32 µM (inactive)

Compound: COc1ccc2[nH]c(=O)c(CN(Cc3ccco3)C(c3nnnn3Cc3ccccc3)C(C)C)cc2c1 (configuration not stated)
- EC50 [22]: > 100 µM (inactive)
- IC50 (Protein Tat): > 100 µM (active)

Compound: Cc1n(Cc2ccccc2)c2ccc(Cl)cc2[n+]1C
- IC50 [23]: 2.46 µM (active)
- IC50 [24]: 4.75 µM (active)
